Data from the supplement of paper PMC10331698.
± gives the standard deviation of the averaged measurements.

Assays:
Assay in all cases: LOEC (log10 uM (lowest observed effect concentration))
Perfluoropinacol = compound: OC(C(F)(F)F)(C(F)(F)F)C(O)(C(F)(F)F)C(F)(F)F [Perfluoropinacol]
Protocol: (§1)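 BioMAP Diversity Plus panel in human primary cell co-cultures, 4 concentrations in duplicate blinded samples. Responses are log10 fold change versus DMSO control, processed with tcpl v2.1.0. A hit is called when responses at any concentration exceed the cutoff (the larger of 3*bmad or log10(1.2)); the lowest observed effect concentration (modl_ga, log10 uM) is reported for hits.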

[1] = compound: FC(F)(I)C(F)(F)C(F)(F)C(F)(F)C(F)(F)C(F)(F)I [1,6-Diiodoperfluorohexane]
Protocol: as §1

[2] = compound: O=C(CC(=O)C(F)(F)C(F)(F)C(F)(F)F)c1cccs1 [(Perfluorobutyryl)-2-thenoylmethane]
Protocol: as §1

[3] = compound: OCCCC(F)(F)C(F)(F)C(F)(F)C(F)(F)C(F)(F)C(F)(F)C(F)(F)C(F)(F)F [3-(Perfluorooctyl)propanol]
Protocol: as §1

[4] = compound: C=CC(=O)OCC(F)(F)C(F)(F)C(F)(F)C(F)(F)COC(=O)C=C [1H,1H,6H,6H-Perfluorohexane-1,6-diol diacrylate]
Protocol: as §1

[5] = compound: OCCC(F)(F)C(F)(F)C(F)(F)C(F)(F)C(F)(F)C(F)(F)C(F)(F)C(F)(F)F [8:2 Fluorotelomer alcohol]
Protocol: as §1

[6] = compound: OCC(F)(F)C(F)(F)C(F)(F)C(F)(F)C(F)(F)C(F)(F)C(F)(F)C(F)(F)CO [1H,1H,10H,10H-Perfluorodecane-1,10-diol]
Protocol: as §1

| Test System | LOEC (log10 uM) (Perfluoropinacol) | LOEC (log10 uM) [1] | LOEC (log10 uM) [2] | LOEC (log10 uM) [3] | LOEC (log10 uM) [4] | LOEC (log10 uM) [5] | LOEC (log10 uM) [6] |
| --- | --- | --- | --- | --- | --- | --- | --- |
| 3C Eselectin down | 1.54 ± 0.34 | 1.54 ± 0.34 | 1.78 | 1.54 ± 0.34 | 1.3 | – | – |
| 3C HLADR down | 1.3 | 1.54 ± 0.34 | 1.07 ± 0.32 | 1.3 | 1.3 | 1.3 | – |
| 3C ICAM1 down | – | 1.78 | 1.78 | 1.3 | 1.54 ± 0.34 | 1.78 | – |
| 3C IL8 down | 1.78 | 1.54 ± 0.34 | 0.845 | 1.3 | 1.54 ± 0.34 | 1.78 | – |
| 3C MCP1 down | 1.78 | 1.54 ± 0.34 | 1.3 | 1.3 | 1.3 | 1.78 | – |
| 3C MIG down | 1.78 | 1.78 | 1.78 | 1.78 | 1.3 | – | – |
| 3C Thrombomodulin up | – | 1.54 ± 0.34 | – | – | – | – | – |
| 3C TissueFactor down | 1.3 | 1.78 | 1.3 | 1.3 | 1.07 ± 0.32 | 1.54 ± 0.34 | – |
| 3C VCAM1 down | 1.78 | 1.54 ± 0.34 | 1.3 | 1.3 | 1.3 | 1.3 | – |
| 3C uPAR down | 0.845 | 1.78 | 0.845 | 1.54 ± 0.34 | 1.3 | 1.3 | – |
| 4H MCP1 down | 1.54 ± 0.34 | 1.54 ± 0.34 | 1.3 | 1.78 | 1.78 | – | – |
| 4H SRB down | 1.3 | 1.54 ± 0.34 | 1.3 | 1.3 | 1.3 | 1.3 | – |
| 4H VCAM1 down | 1.3 | 1.3 | 1.3 | 1.54 ± 0.34 | 1.3 | 1.54 ± 0.34 | 1.78 |
| 4H VEGFRII down | 1.54 ± 0.34 | – | 1.3 | 1.78 | 1.54 ± 0.34 | 1.54 ± 0.34 | – |
| 4H uPAR down | 1.07 ± 0.32 | 1.78 | 1.78 | 1.54 ± 0.34 | 1.78 | 1.3 | – |
| BE3C EGFR down | – | 1.78 | 1.31 ± 0.66 | 1.78 | 1.54 ± 0.34 | – | 1.78 |
| BE3C ICAM1 down | – | 1.78 | 1.3 | 1.78 | 1.54 ± 0.34 | 1.54 ± 0.34 | 1.78 |
| BE3C IL1a down | 1.3 | 1.78 | 1.3 | 1.78 | 1.07 ± 0.32 | 1.3 | – |
| BE3C ITAC down | 1.78 | 1.54 ± 0.34 | 1.3 | 1.78 | 1.78 | 1.3 | 1.3 |
| BE3C Keratin818 down | – | 1.78 | 1.3 | 1.78 | – | 1.54 ± 0.34 | – |
| BE3C MMP1 down | – | – | 1.78 | – | – | – | – |
| BE3C PAI1 down | 1.07 ± 0.32 | 1.54 ± 0.34 | 0.301 | 1.78 | – | 1.3 | 1.78 |
| BE3C SRB down | 1.78 | 1.78 | 1.78 | 1.78 | – | 1.3 | – |
| BE3C tPA down | 1.3 | 1.78 | 1.3 | 1.78 | 1.54 ± 0.34 | 1.3 | – |
| BE3C uPA down | 1.78 | 1.78 | 1.78 | 1.78 | 1.54 ± 0.34 | 1.78 | – |

| Test System | LOEC (log10 uM) (Perfluoropinacol) | LOEC (log10 uM) [1] | LOEC (log10 uM) [2] | LOEC (log10 uM) [3] | LOEC (log10 uM) [4] | LOEC (log10 uM) [5] | LOEC (log10 uM) [6] |
| --- | --- | --- | --- | --- | --- | --- | --- |
| BE3C uPAR down | 1.3 | 1.78 | 1.78 | 1.78 | 1.78 | 1.54 ± 0.34 | 1.78 |
| BF4T CD90 down | – | – | – | 1.54 ± 0.34 | – | – | – |
| BF4T ICAM1 down | – | 1.07 ± 0.32 | 1.78 | 1.3 | 1.3 | 1.78 | 1.3 |
| BF4T IL1a down | – | 1.54 ± 0.34 | 1.78 | 1.78 | 1.78 | – | – |
| BF4T IL8 down | – | 1.3 | – | 1.78 | – | – | – |
| BF4T Keratin818 down | – | 1.78 | 1.3 | 1.54 ± 0.34 | – | – | – |
| BF4T MMP1 down | – | 1.78 | 1.54 ± 0.34 | 1.78 | – | – | – |
| BF4T MMP3 down | – | 1.3 | 1.54 ± 0.34 | 1.78 | – | – | – |
| BF4T MMP9 down | – | 1.07 ± 0.32 | 1.3 | 1.3 | 1.54 ± 0.34 | 1.3 | 1.78 |
| BF4T PAI1 down | 1.3 | 1.07 ± 0.32 | 1.3 | 1.3 | – | 1.78 | 1.3 |
| BF4T SRB down | – | 1.3 | 1.78 | 1.3 | – | 1.54 ± 0.34 | 1.78 |
| BF4T uPA down | – | 1.54 ± 0.34 | 1.54 ± 0.34 | 1.54 ± 0.34 | 1.78 | 1.78 | – |
| CASM3C HLADR down | 1.07 ± 0.32 | 1.3 | 1.78 | 1.78 | 1.54 ± 0.34 | 1.3 | – |
| CASM3C IL6 down | – | 1.54 ± 0.34 | 1.78 | – | – | – | – |
| CASM3C IL8 down | – | 1.54 ± 0.34 | – | 1.78 | – | – | – |
| CASM3C LDLR down | – | 1.54 ± 0.34 | 1.54 ± 0.34 | 1.78 | – | 1.78 | – |
| CASM3C MCP1 down | – | 1.3 | 1.78 | 1.54 ± 0.34 | 1.78 | 1.78 | – |
| CASM3C MCP1 up | 1.54 ± 0.34 | – | – | – | – | – | – |
| CASM3C MCSF down | 1.78 | 1.3 | 1.78 | 1.3 | 1.07 ± 0.32 | 1.54 ± 0.34 | – |
| CASM3C MIG down | 1.78 | 1.3 | 1.54 ± 0.34 | 1.3 | 0.845 | 1.78 | – |
| CASM3C PAI1 down | – | 1.78 | – | 1.78 | 1.78 | 1.78 | – |
| CASM3C SAA down | – | 1.3 | 1.78 | 1.78 | 1.3 | 1.78 | – |
| CASM3C SRB down | 1.78 | 1.3 | 1.78 | 1.54 ± 0.34 | 1.78 | 1.78 | – |
| CASM3C Thrombomodulin up | – | 1.3 | – | – | – | – | – |
